Numbered stars: 1 amine (or outer) side, 2 acyl side, 3 side chain; on linkers, the order of the positions; unused ones are H or OH. Bridge positions count the residues as written; N and C are the ends. Square brackets hold non-standard residues; d marks the D form. Peptide text beside a SMILES is read from it. Trp(5-Cl) = N[C@@H](Cc1c[nH]c2ccc(Cl)cc12)C(=O)O; X3 = O=C(C(Cc1ccc(Br)s1)N[*:1])[*:2]; mXylylene = c1cc(C[*:1])cc(C[*:2])c1; NMeY = CN[C@@H](Cc1ccc(O)cc1)C(=O)O; NMeI = CC[C@H](C)[C@H](NC)C(=O)O; X2 = O=C(Cc1cccc(C[*:2])c1)[*:1]; dPhg = N[C@@H](C(=O)O)c1ccccc1; Chg = N[C@H](C(=O)O)C1CCCCC1; Pen = CC(C)(S)[C@H](N)C(=O)O; Phg = N[C@H](C(=O)O)c1ccccc1; Tle = CC(C)(C)[C@H](N)C(=O)O; NMeA = CN[C@@H](C)C(=O)O; Nle = CCCC[C@H](N)C(=O)O; Ac5c = NC1(C(=O)O)CCCC1; Dab = NCC[C@H](N)C(=O)O; Nva = CCC[C@H](N)C(=O)O; Aib = CC(C)(N)C(=O)O; Mpa = O=C(O)CCS
Target: T1, human plasma kallikrein (Homo sapiens, UniProt P03952)
T1 construct: purchased Enzyme Research Laboratories HPKa 1303
T1 sequence (P03952 20-390 limits assumed): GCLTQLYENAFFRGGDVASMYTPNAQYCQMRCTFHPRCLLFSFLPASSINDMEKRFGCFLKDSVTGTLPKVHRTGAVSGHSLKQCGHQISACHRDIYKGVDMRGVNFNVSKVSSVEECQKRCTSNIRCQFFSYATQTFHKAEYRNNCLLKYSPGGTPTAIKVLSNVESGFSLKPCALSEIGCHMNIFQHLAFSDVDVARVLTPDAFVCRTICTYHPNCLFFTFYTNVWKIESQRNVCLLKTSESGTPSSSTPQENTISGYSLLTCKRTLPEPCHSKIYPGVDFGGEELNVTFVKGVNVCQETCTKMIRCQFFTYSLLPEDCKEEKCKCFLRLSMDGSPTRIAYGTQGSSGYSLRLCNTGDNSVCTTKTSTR
T1 sequence (P03952 391-638 limits assumed): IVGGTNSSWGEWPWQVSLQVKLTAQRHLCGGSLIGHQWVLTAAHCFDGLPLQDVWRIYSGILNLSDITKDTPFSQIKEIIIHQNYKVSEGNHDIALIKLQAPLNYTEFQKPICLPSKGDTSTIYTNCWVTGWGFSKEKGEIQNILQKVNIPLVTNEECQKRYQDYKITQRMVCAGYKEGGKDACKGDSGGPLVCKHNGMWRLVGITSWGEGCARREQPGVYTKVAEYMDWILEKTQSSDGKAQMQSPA
Assay: Enzyme inhibition assay (fluorogenic substrate H-Pro-Phe-Arg-AMC)
Assay type: biochemical
Settings: Kallikrein inhibitory activity; 1 nM activated human kallikrein, 500 μM H-Pro-Phe-Arg-AMC, 1 hour room temperature; read-out: Avg. IC50
Protocol: Activated human plasma kallikrein (Enzyme Research Laboratories, HPKa 1303) was reacted with H-Pro-Phe-Arg-7-amido-4-methylcoumarin (H-Pro-Pre-Arg-AMC) (a fluorogenic substrate for plasma as well as pancreatic and urinary kallikreins; Bachem I-1295) and candidate inhibitory peptides to determine the IC50 of the inhibitor.
Ten 8-fold serial dilutions of peptides (10 mM DMSO stocks) were performed in DMSO and then added to TCNB (50 mM Tris-HCl pH 7.2, 150 mM NaCl, 10 mM CaCl2, 0.05% Brij-35) and sonicated. 50 μL of the peptide dilutions were added to microtitre plates (96 well, black non-binding surface, Corning, 3650) and incubated for 5 minutes at room temperature with 4 nM activated human kallikrein (final concentration after addition of fluorogenic substrate: 1 nM). The samples were then incubated for 1 hour at room temperature with 2 mM H-Pro-Phe-Arg-AMC (final concentration 500 μM). Relative Fluorescence Units (RFU) were measured at excitation/emission 360 nm/460 nm by a SpectraMax M3.

| Compound | IC50 [nM] |
| --- | --- |
| CC(C)(C)[C@H](NC(=O)[C@H](CCCNC(=N)N)NC(=O)[C@@H]1CSCc2cccc(c2)/C=C/CC(=O)N2CCC[C@H]2C(=O)N[C@@H](C2CCCCC2)C(=O)N1)C(N)=O [Compound R2259] | 1460 |
| CC(C)[C@H](NC(=O)[C@H](CCCNC(=N)N)NC(=O)[C@@H]1CSCc2cccc(c2)CSCCC(=O)N2CCC[C@H]2C(=O)N[C@@H](C2CCCCC2)C(=O)N1)C(=O)O [Compound R2183, [mXylyl(1,4)](des-NH2)C-P-Chg-CR-V-OH] ([Mpa]P[Chg]CRV-OH; linker 1-4 via mXylylene) | > 3500 |
| CC(C)(C)[C@H](NC(=O)[C@H](CCN)NC(=O)[C@@H]1CSCc2cccc(c2)CSCCC(=O)N2CCC[C@H]2C(=O)N[C@@H](c2ccccc2)C(=O)N1)C(N)=O [Compound R2211, [mXylyl(1,4)](des-NH2)C-P-Phg-C-Dab-Tbg-NH2] ([Mpa]P[Phg]C[Dab][Tle]-NH2; linker 1-4 via mXylylene) | > 75000 |
| C[C@@H]1NC(=O)C(C)(C)NC(=O)CCSCc2cccc(c2)CSC[C@@H](C(=O)N[C@@H](CCCNC(=N)N)C(=O)O)NC(=O)[C@H](C2CCCCC2)NC1=O [Compound R2153, [mXylyl(1,5)](des-NH2)C-Aib-A-Chg-CR-OH] ([Mpa][Aib]A[Chg]CR-OH; linker 1-5 via mXylylene) | > 8880 |
| C[C@@H]1NC(=O)C2(CCCC2)NC(=O)CCSCc2cccc(c2)CSC[C@@H](C(=O)N[C@@H](CCCNC(=N)N)C(=O)N[C@H](C(N)=O)C(C)(C)C)NC(=O)[C@H](C2CCCCC2)NC1=O [Compound R2169, [mXylyl(1,5)](des-NH2)C-(Cyclo-L)-A-Chg-CR-Tbg-NH2] ([Mpa][Ac5c]A[Chg]CR[Tle]-NH2; linker 1-5 via mXylylene) | 1.9 |
| CCC[C@H](N)C(=O)N[C@H]1CSCc2cccc(c2)CSC[C@@H](C(=O)N[C@@H](CCCNC(=N)N)C(=O)N[C@H](C(N)=O)C(C)(C)C)NC(=O)[C@H](c2ccccc2)NC(=O)[C@H](CO)NC(=O)[C@H](CCC(=O)O)NC1=O [Compound R2013, [mXylyl(2,6)]Nvl-CES-Phg-CR-Tbg-NH2] (H-[Nva]CES[Phg]CR[Tle]-NH2; linker 2-6 via mXylylene) | 6.8 |
| CC(=O)N[C@@H](CS)C(=O)N[C@@H](CC(N)=O)C(=O)N[C@@H](Cc1ccc(O)cc1)C(=O)N[C@@H](Cc1c[nH]c2ccccc12)C(=O)N[C@@H](CO)C(=O)N1CCC[C@@H]1C(=O)N[C@@H](Cc1c[nH]c2ccccc12)C(=O)N[C@H](C(=O)N[C@@H](C)C(=O)N[C@@H](CS)C(N)=O)[C@@H](C)O [Compound R2229, Ac-CNYWSpWTAC-NH2] (Ac-CNYWS[dP]WTAC-NH2) | > 14300 |
| CC[C@H](C)[C@@H]1NC(=O)[C@H](C)NC(=O)[C@H](C)NC(=O)CCSCc2cccc(c2)CSC[C@@H](C(=O)N[C@@H](CCCNC(=N)N)C(=O)N[C@H](C(N)=O)C(C)C)NC1=O [Compound R2072, [mXylyl(1,5)](des-NH2)C-AAICRV-NH2] ([Mpa]AAICRV-NH2; linker 1-5 via mXylylene) | 13 |
| CC[C@@H](C)[C@@H]1NC(=O)CCCCCCC/C=C/C[C@@H](C(=O)N[C@@H](CCCNC(=N)N)C(=O)N[C@H](C(N)=O)C(C)C)NC1=O [Compound R2240] | > 75000 |
| CC(=O)N[C@@H](CS)C(=O)N[C@@H](CC(N)=O)C(=O)N(C)[C@@H](Cc1ccc(O)cc1)C(=O)N[C@@H](Cc1c[nH]c2ccccc12)C(=O)N[C@@H](CO)C(=O)N1CCC[C@H]1C(=O)N[C@@H](Cc1c[nH]c2ccccc12)C(=O)N[C@H](C(=O)N[C@@H](C)C(=O)N[C@@H](CS)C(N)=O)[C@@H](C)O [Compound R2239, Ac-CN-nMeY-WSPWTAC-NH2] (Ac-CN[NMeY]WSPWTAC-NH2) | > 12500 |
| CC(C)(C)[C@H](NC(=O)[C@H](CCCNC(=N)N)NC(=O)[C@@H]1CCOc2cccc(c2)OCCCC(=O)N2CCC[C@H]2C(=O)N[C@@H](C2CCCCC2)C(=O)N1)C(N)=O [Compound R2256] | > 100000 |
| CCCC[C@@H]1NC(=O)[C@@H](NC(C)=O)CSCc2cccc(c2)CSC[C@@H](C(=O)N[C@@H](CCCNC(=N)N)C(=O)N[C@H](C(N)=O)C(C)(C)C)NC(=O)[C@H](c2ccccc2)NC(=O)[C@H](CO)NC1=O [Compound R2065, [mXylyl(1,5)]Ac-C-Nle-S-Phg-CR-Tbg-NH2] (Ac-C[Nle]S[Phg]CR[Tle]-NH2; linker 1-5 via mXylylene) | 6.1 |
| CC[C@H](C)[C@@H]1NC(=O)[C@H](CO)NC(=O)[C@H](CCC(=O)O)NC(=O)[C@@H](NC(=O)[C@@H](N)CCSC)CSCc2cccc(c2)CSC[C@@H](C(=O)N[C@@H](CCCNC(=N)N)C(=O)N[C@H](C(=O)N[C@@H](CC(C)C)C(=O)N[C@@H](CCCNC(=N)N)C(=O)N[C@@H](Cc2ccc(O)cc2)C(=O)N[C@@H](CO)C(=O)N[C@@H](CCC(=O)O)C(N)=O)C(C)C)NC1=O [Compound R2004, [mXylyl(2,6)]MCESICRVLRYSE-NH2] (H-MCESICRVLRYSE-NH2; linker 2-6 via mXylylene) | 0.501 |
| CCC[C@H](N)C(=O)N[C@@H]1C(=O)N[C@@H](CCC(=O)O)C(=O)N[C@@H](CO)C(=O)N[C@@H]([C@@H](C)CC)C(=O)N[C@H](C(=O)N[C@@H](CCCNC(=N)N)C(=O)N[C@H](C(N)=O)C(C)C)CSCc2cccc(c2)CSC1(C)C [Compound R2031, [mXylyl(2,6)]Nvl-Pen-ESICRV-NH2] (H-[Nva][Pen]ESICRV-NH2; linker 2-6 via mXylylene) | 1460 |
| CNC(=O)[C@@H](NC(=O)[C@H](CCCNC(=N)N)NC(=O)[C@@H]1CSCc2cccc(c2)CSCCC(=O)NC2(CCCC2)C(=O)N[C@@H](C)C(=O)N[C@@H](C2CCCCC2)C(=O)N1)C(C)C [Compound R2178, [mXylyl(1,5)](des-NH2)C-(Cyclo-L)-A-Chg-CR-V-NHCH3] ([Mpa][Ac5c]A[Chg]CRV-NHMe; linker 1-5 via mXylylene) | 3.2 |
| CC[C@H](C)[C@H]1C(=O)N[C@H](C(=O)N[C@@H](CCCNC(=N)N)C(=O)N[C@H](C(N)=O)C(C)C)CSCc2cccc(c2)CSC[C@H](NC(=O)[C@@H](N)CCSC)C(=O)N[C@@H](CCC(=O)O)C(=O)N[C@@H](CO)C(=O)N1C [Compound R2026, [mXylyl(2,6)]MCES-nMeI-CRV-NH2] (H-MCES[NMeI]CRV-NH2; linker 2-6 via mXylylene) | 26 |
| CC(C)(C)[C@H](NC(=O)[C@H](CCCNC(=N)N)NC(=O)[C@@H]1CCCn2cc(nn2)CCCCC(=O)N2CCC[C@H]2C(=O)N[C@@H](C2CCCCC2)C(=O)N1)C(N)=O [Compound R2248] | > 100000 |
| CC(C)(C)[C@H](NC(=O)[C@H](CCCNC(=N)N)NC(=O)[C@@H]1CSCc2cccc(c2)CC(=O)NCC(=O)N2CCC[C@H]2C(=O)N[C@@H](C2CCCCC2)C(=O)N1)C(N)=O [Compound R2265] (GP[Chg]CR[Tle]-NH2; linker N-4 via X2) | 39.2 |
| CC(=O)N[C@@H](CS)C(=O)N[C@@H](CC(N)=O)C(=O)N[C@@H](Cc1ccc(O)cc1)C(=O)N[C@@H](Cc1c[nH]c2ccccc12)C(=O)N[C@@H](CO)C(=O)N1CCC[C@H]1C(=O)N[C@@H](Cc1c[nH]c2ccccc12)C(=O)N[C@H](C(=O)N(C)[C@@H](C)C(=O)N[C@@H](CS)C(N)=O)[C@@H](C)O [Compound R2234, Ac-CNYWSPWT-nMeA-C-NH2] (Ac-CNYWSPWT[NMeA]C-NH2) | 2.7 |
| CC[C@@H](C)[C@@H]1NC(=O)CCCCCC/C=C/C[C@@H](C(=O)N[C@@H](CCCNC(=N)N)C(=O)N[C@H](C(N)=O)C(C)C)NC1=O [Compound R2241] | > 75000 |
| C[C@@H]1NC(=O)C(C)(C)NC(=O)CCSCc2cccc(c2)CSC[C@@H](C(=O)N[C@@H](CCCNC(=N)N)C(=O)N[C@H](C(N)=O)C(C)(C)C)NC(=O)[C@H](C2CCCCC2)NC1=O [Compound R2091, [mXylyl(1,5)](des-NH2)C-Aib-A-Chg-CR-Tbg-NH2] ([Mpa][Aib]A[Chg]CR[Tle]-NH2; linker 1-5 via mXylylene) | 3.2 |
| CC(C)(C)[C@H](NC(=O)[C@H](Cc1c[nH]c2ccc(Cl)cc12)NC(=O)[C@@H]1CSCc2cccc(c2)CSCCC(=O)N2CCC[C@H]2C(=O)N[C@@H](c2ccccc2)C(=O)N1)C(N)=O [Compound R2209, [mXylyl(1,4)](des-NH2)C-P-Phg-C-5-C1-Trp-Tbg-NH2] ([Mpa]P[Phg]C[Trp(5-Cl)][Tle]-NH2; linker 1-4 via mXylylene) | > 75000 |
| CC[C@@H](C)[C@@H]1NC(=O)CCCCC/C=C/C[C@@H](C(=O)N[C@@H](CCCNC(=N)N)C(=O)N[C@H](C(N)=O)C(C)C)NC1=O [Compound R2242] | > 100000 |
| Ac-CNYWSPWTEA-NH2 [Compound R2127, Ac-CNYWSPWTEA-NH2] | 35.6 |
| CC(C)(C)[C@H](NC(=O)[C@H](CCCNC(=N)N)NC(=O)[C@@H]1CCn2cc(nn2)CCCCC(=O)N2CCC[C@H]2C(=O)N[C@@H](C2CCCCC2)C(=O)N1)C(N)=O [Compound R2249] | > 100000 |
| CC(C)(C)[C@H](NC(=O)C(Cc1ccc(Br)s1)NC(=O)[C@@H]1CSCc2cccc(c2)CSCCC(=O)N2CCC[C@H]2C(=O)N[C@H](c2ccccc2)C(=O)N1)C(N)=O (stereo partly drawn) [Compound R2220, [mXylyl(1,4)](des-NH2)C-P-(D-Phg)-C-ABP-Tbg-NH2] ([Mpa]P[dPhg]C[X3][Tle]-NH2; linker 1-4 via mXylylene) | > 100000 |
